Data published in ChEMBL document CHEMBL3244166, “Syntheses and biological activities of basically substituted isoalloxazines” (J Med Chem, 1978).

Legend:
[1] = system: Rattus norvegicus; test: In vivo inhibition of riboflavin activity in weanling Wistar rat assessed as change in body weight at 2 mg/kg/day administered by stomach tube prior to feeding with riboflavin-deficient diet measured for 28 days (reference value: 3 +/- 1 g); format: functional
[2] = system: Rattus norvegicus; test: Induction of riboflavin-like activity in weanling Wistar rat assessed as change in body weight at 2 mg/kg/day administered by stomach tube prior to feeding with riboflavin-deficient diet measured for 28 days in presence of 20 ug/day riboflavin (reference value: 3 +/- 1 g); format: functional
[3] = Toxicity in weanling Wistar rat assessed as survival at 2 mg/rat/day administered by stomach tube prior to feeding with riboflavin-deficient diet measured for 28 days relative to control; details: in vivo, oral
[4] = system: Rattus norvegicus; test: Induction of riboflavin-like activity in weanling Wistar rat assessed as change in body weight at 2 mg/kg/day administered by stomach tube prior to feeding with riboflavin-deficient diet measured for 28 days in presence of 40 ug/day riboflavin (reference value: 3 +/- 1 g); format: functional
[5] = system: Rattus norvegicus; test: Induction of riboflavin-like activity in weanling Wistar rat assessed as change in body weight at 2 mg/kg/day administered by stomach tube prior to feeding with riboflavin-deficient diet measured for 28 days in presence of 60 ug/day riboflavin (reference value: 3 +/- 1 g); format: functional
[6] = system: Rattus norvegicus; test: In vivo inhibition of riboflavin activity in weanling Wistar rat assessed as decrease in body weight at 2 mg/kg/day administered by stomach tube prior to feeding with riboflavin-deficient diet measured for >= 14 days (reference value: 3 +/- 1 g); format: functional

With `Cc1cc2nc3c(=O)[nH]c(=O)nc-3n(CCN(CCO)CCO)c2cc1C` the Activity [1] was -10 g, the Activity [2] was 35 g and the survival at 672 h [3] was 40%.

Work on `O=c1nc2n(CCN(CCO)CCO)c3cc(Cl)c(Cl)cc3nc-2c(=O)[nH]1` yielded an Activity [1] of 6 g and a survival at 672 h [3] of 100%.

With `Cc1cc2c(cc1Cl)nc1c(=O)[nH]c(=O)nc-1n2CCN(CCO)CCO.Cl` the Activity [1] was -8 g and the survival at 672 h [3] was 100%.

For `Cc1cc2nc3c(=O)[nH]c(=O)nc-3n(CCN(CCO)CCO)c2cc1Cl.Cl`, the Activity [1] was 0 g and the survival at 672 h [3] was 100%.

Work on `CCc1cc2nc3c(=O)[nH]c(=O)nc-3n(CCN(CCO)CCO)c2cc1C.Cl` yielded an Activity [1] of -25 g, an Activity [2] of -2 g and an Activity [4] of 21 g. For the same compound, the survival at 672 h [3] was 60%.

Work on `CCc1cc2nc3c(=O)[nH]c(=O)nc-3n(CCN(CCO)CCO)c2cc1CC.Cl` yielded an Activity [2] of -9 g, an Activity [4] of 7 g and an Activity [5] of 33 g. It also gave an Activity [6] of -26 g and a survival at 672 h [3] of 25%.
